Measured values taken from publication PMC9354042, “Discovery of BRAF/HDAC Dual Inhibitors Suppressing Proliferation of Human Colorectal Cancer Cells” (Frontiers in Chemistry, 2022).

Key:
HT-29 cells = assay: Antiproliferation CCK-8 assay, HT-29; format: cell-based; settings: Homo sapiens; CCK-8, 72 h, HT-29 (BRAF^V600E); means of three independent experiments; read-out: Cellular IC50 HT-29
Procedure: (§1) HCT116 and HT-29 cells were obtained from the Shanghai Cell Bank (Type Culture Collection (TCC), Chinese Academy of Sciences) and cultured in DMEM (10–013-CVR, corning) supplemented with 10% fetal bovine serum (04-001-1A, BI), 1% penicillin/streptomycin (03-031-1B, BI).
(§2) The cells in the logarithmic phase were placed in 96-well plates (∼3000 cells/well) in a complete medium. After incubation overnight, the cells were exposed to the corresponding compounds or vehicle control at the indicated concentration for a further 72 h. Cell proliferation was evaluated using Cell Counting Kit 8 (CCK8, CK04, Dojindo Laboratories, Kumamoto, Japan). OD450 and OD650 were determined using a microplate reader. Absorbance rate (A) for each well was calculated as OD450 −OD650. […] Each IC50 value is expressed as mean ± SD. As is the absorbance rate of the test compound well, Ac is the absorbance rate of the well without either the cell or test compound, and Ab is the absorbance rate of the well with the cell and vehicle control.

HCT116 cells = assay: Antiproliferation CCK-8 assay, HCT116; format: cell-based; settings: Homo sapiens, HCT-116; CCK-8, 72 h, HCT116 (wild-type BRAF); means of three independent experiments; read-out: Cellular IC50 HCT116
Procedure: as §1, §2

BRAF^V600E = target: T1, BRAF^V600E (Homo sapiens, UniProt P15056, V600E); assay: BRAF V600E enzymatic activity, FRET-based Z'-Lyte kinase assay; format: biochemical
T1 construct: purchased Invitrogen
Procedure: The experiments were performed according to the instructions of the manufacturer. […] For each assay, 10 μl kinase reactions were added to 384-well plate, mixed thoroughly, and incubated for 1 hour at room temperature. Then, a 5 μl development solution was added to each well and the plate was incubated for another 1 h at room temperature. Then, a 5 μl stop reagent was loaded to stop the reaction. For the control setting, a 5 μl phospho-peptide solution instead of kinase/peptide mixture was used as 100% phosphorylation control. […] The plate was measured on an EnVision Multilabel Reader (Perkin-Elmer). Curve fitting and data presentations were performed using GraphPad Prism, version 5.0. Every experiment was repeated at least two times.

HDAC1 = target: T2, HDAC1 (Homo sapiens, UniProt Q13547); assay: HDAC1 fluorescent-based enzymatic activity assay; format: biochemical; settings: Table 1; read-out: Enzymatic IC50 HDAC1
T2 construct: purchased BPS Bioscience
Procedure: (§3) The purified recombinant Human HDACs and their corresponding substrates were purchased from BPS Bioscience (BPS Bioscience Inc., United States). The assays were carried out in a 384-well format using the BPS fluorescent–based HDAC activity assay according to the manufacturer’s protocol. In brief, […] of the HDAC reaction mixture was composed of HDAC assay buffer, […] BSA, serial diluted test compounds, appropriate concentration of HDACs, and […] fluorogenic substrate, the mixture was incubated at 37°C for 60 min, and then stopped by the addition of developer containing trypsin and TSA. After 20 min of incubation, the fluorescence was detected at the excitation wavelength of 360 nm and the emission wavelength of 460 nm using the EnVision Multilabel Reader (PerkinElmer Inc., United States). The analytical software, GraphPad Prism 5.0 (GraphPad Software, Inc., United States) was used to generate IC50 value via non-linear regression analysis.

HDAC6 = target: T3, HDAC6 (Homo sapiens, UniProt Q9UBN7); assay: HDAC6 fluorescent-based enzymatic activity assay; format: biochemical; settings: Table 1; read-out: Enzymatic IC50 HDAC6
T3 construct: purchased BPS Bioscience
T3 sequence (Q9UBN7 1-1215): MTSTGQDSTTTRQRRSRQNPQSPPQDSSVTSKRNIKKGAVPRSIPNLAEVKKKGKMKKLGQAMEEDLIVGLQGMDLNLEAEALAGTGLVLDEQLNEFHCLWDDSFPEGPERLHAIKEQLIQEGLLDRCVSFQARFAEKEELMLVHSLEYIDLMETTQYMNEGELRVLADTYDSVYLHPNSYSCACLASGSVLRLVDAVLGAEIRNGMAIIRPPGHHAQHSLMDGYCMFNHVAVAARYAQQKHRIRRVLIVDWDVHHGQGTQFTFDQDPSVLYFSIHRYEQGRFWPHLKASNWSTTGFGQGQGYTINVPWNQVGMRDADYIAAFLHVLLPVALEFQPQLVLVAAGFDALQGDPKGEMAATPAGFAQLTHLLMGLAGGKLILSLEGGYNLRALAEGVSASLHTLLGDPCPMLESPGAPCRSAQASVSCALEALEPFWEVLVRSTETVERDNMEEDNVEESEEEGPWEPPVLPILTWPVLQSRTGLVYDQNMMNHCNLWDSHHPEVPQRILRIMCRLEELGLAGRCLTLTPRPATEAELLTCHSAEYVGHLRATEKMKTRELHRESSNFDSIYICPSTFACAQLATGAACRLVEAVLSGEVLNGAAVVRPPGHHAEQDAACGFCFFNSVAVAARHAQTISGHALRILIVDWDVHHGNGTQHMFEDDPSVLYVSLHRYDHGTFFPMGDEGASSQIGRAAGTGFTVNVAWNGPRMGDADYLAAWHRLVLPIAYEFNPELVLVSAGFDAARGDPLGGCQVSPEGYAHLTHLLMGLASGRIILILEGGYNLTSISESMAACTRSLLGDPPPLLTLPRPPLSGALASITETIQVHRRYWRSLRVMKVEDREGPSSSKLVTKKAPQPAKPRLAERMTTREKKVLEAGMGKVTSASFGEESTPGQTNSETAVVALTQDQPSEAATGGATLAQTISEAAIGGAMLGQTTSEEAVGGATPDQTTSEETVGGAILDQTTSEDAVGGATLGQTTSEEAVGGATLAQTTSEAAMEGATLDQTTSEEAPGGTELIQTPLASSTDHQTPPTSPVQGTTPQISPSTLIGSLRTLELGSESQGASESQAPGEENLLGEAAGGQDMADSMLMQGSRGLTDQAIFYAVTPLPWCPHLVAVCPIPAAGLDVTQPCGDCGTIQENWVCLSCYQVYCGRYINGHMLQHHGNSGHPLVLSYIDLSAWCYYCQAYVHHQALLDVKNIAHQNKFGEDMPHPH
Procedure: as §3

T1 sequence (P15056 whole entry V600E): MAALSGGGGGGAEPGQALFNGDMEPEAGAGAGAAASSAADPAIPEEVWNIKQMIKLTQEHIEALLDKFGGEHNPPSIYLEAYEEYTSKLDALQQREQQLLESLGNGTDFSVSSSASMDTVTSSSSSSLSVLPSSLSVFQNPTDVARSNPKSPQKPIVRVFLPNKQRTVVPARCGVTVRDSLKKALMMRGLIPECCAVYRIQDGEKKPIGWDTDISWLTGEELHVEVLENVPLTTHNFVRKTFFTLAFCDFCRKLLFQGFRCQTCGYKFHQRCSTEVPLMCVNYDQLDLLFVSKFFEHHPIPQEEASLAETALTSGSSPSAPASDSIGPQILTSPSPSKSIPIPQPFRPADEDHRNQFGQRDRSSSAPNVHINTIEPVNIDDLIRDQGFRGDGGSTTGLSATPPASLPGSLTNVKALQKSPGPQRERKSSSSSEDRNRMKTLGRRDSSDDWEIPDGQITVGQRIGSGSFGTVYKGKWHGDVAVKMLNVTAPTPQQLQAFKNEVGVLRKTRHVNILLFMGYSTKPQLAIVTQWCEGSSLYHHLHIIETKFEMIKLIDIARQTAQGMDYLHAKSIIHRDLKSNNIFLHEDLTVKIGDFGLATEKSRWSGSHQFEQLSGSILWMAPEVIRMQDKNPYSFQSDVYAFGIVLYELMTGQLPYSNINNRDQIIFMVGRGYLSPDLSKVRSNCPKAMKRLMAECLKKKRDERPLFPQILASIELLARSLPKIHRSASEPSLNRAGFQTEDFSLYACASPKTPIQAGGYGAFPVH
T2 sequence (Q13547 whole entry): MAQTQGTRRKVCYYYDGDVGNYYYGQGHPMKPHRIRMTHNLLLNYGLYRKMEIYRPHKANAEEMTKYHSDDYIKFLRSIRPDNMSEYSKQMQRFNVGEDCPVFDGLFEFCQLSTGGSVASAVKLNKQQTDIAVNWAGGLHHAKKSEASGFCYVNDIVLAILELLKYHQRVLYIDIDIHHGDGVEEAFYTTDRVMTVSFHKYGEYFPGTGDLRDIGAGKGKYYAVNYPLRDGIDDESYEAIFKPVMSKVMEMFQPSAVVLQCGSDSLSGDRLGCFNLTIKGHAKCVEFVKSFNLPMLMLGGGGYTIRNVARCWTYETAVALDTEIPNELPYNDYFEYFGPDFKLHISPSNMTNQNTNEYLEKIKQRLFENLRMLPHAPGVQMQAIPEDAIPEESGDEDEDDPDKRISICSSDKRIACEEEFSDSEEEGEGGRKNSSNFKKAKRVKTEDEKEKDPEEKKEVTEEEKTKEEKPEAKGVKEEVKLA

Structure (SMILES) | IC50 (HT-29 cells) | IC50 (HCT116 cells) | IC50 (BRAF^V600E) | IC50 (HDAC1) | IC50 (HDAC6)
CC(C)(C)c1nc(-c2cccc(NS(=O)(=O)c3c(F)cccc3F)c2F)c(-c2ccnc(NCCCCCC(=O)NO)n2)s1 [14a] | 1000 nM | 3000 nM | 3.25 nM | 679 nM | 1210 nM
CC(C)(C)c1nc(-c2cccc(NS(=O)(=O)c3c(F)cccc3F)c2F)c(-c2ccnc(NCCCCCCCC(=O)NO)n2)s1 [14c, 8-{[4-(2-(Tert-Butyl)-4-(3-(2,6-Difluorophenylsulfonamido)-2-Fluorophenyl)Thiazol-5-yl)Pyrimidin-2-yl]Amino}-N-Hydroxyoctanamide] | 880 nM | 4470 nM | 2.27 nM | 312 nM | 128 nM
CC(C)(C)c1nc(-c2cccc(NS(=O)(=O)c3c(F)cccc3F)c2F)c(-c2ccnc(NCCCCCCCCC(=O)NO)n2)s1 [14d, 9-{[4-(2-(Tert-Butyl)-4-(3-(2,6-Difluorophenylsulfonamido)-2-Fluorophenyl)Thiazol-5-yl)Pyrimidin-2-yl]Amino}-N-Hydroxynonanamide] | 480 nM | 3660 nM | 3.82 nM | 765 nM | 322 nM
Cc1nc(-c2cccc(NS(=O)(=O)c3c(F)cccc3F)c2F)c(-c2ccnc(NCCCCCCC(=O)NO)n2)s1 [14e, 7-{[4-(4-(3-(2,6-Difluorophenylsulfonamido)-2-Fluorophenyl)-2-Methylthiazol-5-yl)Pyrimidin-2-yl]Amino}-N-Hydroxyheptanamide] | 6390 nM | 7530 nM | 3.5 nM | 42.2 nM | 14.6 nM
CCc1nc(-c2cccc(NS(=O)(=O)c3c(F)cccc3F)c2F)c(-c2ccnc(NCCCCCCC(=O)NO)n2)s1 [14f, 7-{[4-(4-(3-(2,6-Difluorophenylsulfonamido)-2-Fluorophenyl)-2-Ethylthiazol-5-yl)Pyrimidin-2-yl]Amino}-N-Hydroxyheptanamide] | 1270 nM | 4270 nM | 1.66 nM | 61.3 nM | 26.5 nM
CC(C)c1nc(-c2cccc(NS(=O)(=O)c3c(F)cccc3F)c2F)c(-c2ccnc(NCCCCCCC(=O)NO)n2)s1 [14g, 7-{[4-(4-(3-(2,6-Difluorophenylsulfonamido)-2-Fluorophenyl)-2-Isopropylthiazol-5-yl)Pyrimidin-2-yl]Amino}-N-Hydroxyheptanamide] | 990 nM | 2680 nM | 1.51 nM | 130 nM | 30 nM
O=C(CCCCCCNc1nccc(-c2sc(C3CC3)nc2-c2cccc(NS(=O)(=O)c3c(F)cccc3F)c2F)n1)NO [14h, 7-{[4-(2-Cyclopropyl-4-(3-(2,6-Difluorophenylsulfonamido)-2-Fluorophenyl)Thiazol-5-yl)Pyrimidin-2-yl]Amino}-N-Hydroxyheptanamide] | 2210 nM | 4710 nM | 1.31 nM | 49.8 nM | 27.1 nM
CCCc1nc(-c2cccc(NS(=O)(=O)c3c(F)cccc3F)c2F)c(-c2ccnc(NCCCCCCC(=O)NO)n2)s1 [14i, 7-{[4-(4-(3-(2,6-Difluorophenylsulfonamido)-2-Fluorophenyl)-2-Propylthiazol-5-yl)Pyrimidin-2-yl]Amino}-N-Hydroxyheptanamide] | 970 nM | 3080 nM | 1.07 nM | 105 nM | 64.6 nM
CC(C)(C)c1nc(-c2cccc(NS(C)(=O)=O)c2F)c(-c2ccnc(NCCCCCCC(=O)NO)n2)s1 [21a, 7-{[4-(2-(Tert-Butyl)-4-(2-Fluoro-3-(Methylsulfonamido)Phenyl)Thiazol-5-yl)Pyrimidin-2-yl]Amino}-N-Hydroxyheptanamide] | 5020 nM | 8520 nM | 1.03 nM | 113 nM | 22.2 nM
CCCS(=O)(=O)Nc1cccc(-c2nc(C(C)(C)C)sc2-c2ccnc(NCCCCCCC(=O)NO)n2)c1F [21b, 7-{[4-(2-(Tert-Butyl)-4-(2-Fluoro-3-(Propylsulfonamido)Phenyl)Thiazol-5-yl)Pyrimidin-2-yl]Amino}-N-Hydroxyheptanamide] | 780 nM | 5440 nM | 1.71 nM | 432 nM | 72.1 nM
Cc1nc(-c2cccc(NS(C)(=O)=O)c2F)c(-c2ccnc(NCCCCCCC(=O)NO)n2)s1 [21d, 7-{[4-(4-(2-Fluoro-3-(Methylsulfonamido)Phenyl)-2-Methylthiazol-5-yl)Pyrimidin-2-yl]Amino}-N-Hydroxyheptanamide] | > 10000 nM | > 10000 nM | 258 nM | 71 nM | 21.8 nM
CCS(=O)(=O)Nc1cccc(-c2nc(C)sc2-c2ccnc(NCCCCCCC(=O)NO)n2)c1F [21e, 7-{[4-(4-(3-(Ethylsulfonamido)-2-Fluorophenyl)-2-Methylthiazol-5-yl)Pyrimidin-2-yl]Amino}-N-Hydroxyheptanamide] | > 10000 nM | 9150 nM | 107 nM | 52.2 nM | 18.8 nM
Cc1nc(-c2cccc(NS(=O)(=O)c3ccccc3)c2F)c(-c2ccnc(NCCCCCCC(=O)NO)n2)s1 [21f, 7-{[4-(4-(2-Fluoro-3-(Phenylsulfonamido)Phenyl)-2-Methylthiazol-5-yl)Pyrimidin-2-yl]Amino}-N-Hydroxyheptanamide] | 4960 nM | 4410 nM | 3.92 nM | 49.4 nM | 18.7 nM
